Measured values taken from paper PMC5591244, “Novel selective, potent naphthyl TRPM8 antagonists identified through a combined ligand- and structure-based virtual screening approach” (Scientific Reports, 2017).

Assays:
Type in all cases: cell-based
TRPM8 = biological target: T1, TRPM8 (Homo sapiens, UniProt Q7Z2W7); assay: Calcium mobilization assay (HTS and dose-response) on HEK-293/hTRPM8 cells; conditions: for Max inhibition: HTS campaign, Cooling agent 10 30 μM, %inhibition values obtained at 10 mM (so in the source)
T1 construct: expressed in transfected cells
T1 sequence (Q7Z2W7 whole entry): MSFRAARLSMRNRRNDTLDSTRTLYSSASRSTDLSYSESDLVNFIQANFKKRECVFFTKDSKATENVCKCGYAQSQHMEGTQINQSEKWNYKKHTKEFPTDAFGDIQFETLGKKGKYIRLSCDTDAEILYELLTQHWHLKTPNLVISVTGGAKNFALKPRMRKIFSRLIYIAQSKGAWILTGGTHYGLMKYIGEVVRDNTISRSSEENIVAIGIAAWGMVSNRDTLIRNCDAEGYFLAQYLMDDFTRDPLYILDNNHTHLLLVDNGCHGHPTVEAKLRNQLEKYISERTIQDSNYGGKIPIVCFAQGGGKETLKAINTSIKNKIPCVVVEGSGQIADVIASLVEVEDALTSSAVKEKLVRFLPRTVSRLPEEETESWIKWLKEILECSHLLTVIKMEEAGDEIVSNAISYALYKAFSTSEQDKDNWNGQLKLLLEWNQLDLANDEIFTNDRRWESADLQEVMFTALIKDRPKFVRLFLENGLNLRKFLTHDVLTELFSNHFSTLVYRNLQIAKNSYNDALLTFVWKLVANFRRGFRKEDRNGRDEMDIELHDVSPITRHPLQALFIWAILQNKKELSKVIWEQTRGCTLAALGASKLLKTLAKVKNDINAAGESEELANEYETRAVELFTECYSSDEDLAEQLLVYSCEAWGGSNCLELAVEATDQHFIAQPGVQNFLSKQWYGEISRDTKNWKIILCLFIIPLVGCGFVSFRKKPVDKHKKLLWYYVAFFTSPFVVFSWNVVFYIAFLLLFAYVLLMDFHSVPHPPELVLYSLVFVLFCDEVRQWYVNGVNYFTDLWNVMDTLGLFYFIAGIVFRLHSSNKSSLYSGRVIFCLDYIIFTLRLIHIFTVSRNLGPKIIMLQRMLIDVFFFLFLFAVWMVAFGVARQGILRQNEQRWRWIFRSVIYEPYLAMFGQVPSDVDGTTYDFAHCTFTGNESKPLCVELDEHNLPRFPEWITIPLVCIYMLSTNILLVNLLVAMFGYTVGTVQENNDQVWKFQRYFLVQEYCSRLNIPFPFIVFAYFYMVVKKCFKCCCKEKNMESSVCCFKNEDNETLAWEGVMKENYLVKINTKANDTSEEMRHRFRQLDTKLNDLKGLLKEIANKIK
Method: All experiments were performed on HEK-293/hTRPM8 cells stably transfected with the human TRPM8 gene, except for site-directed mutagenesis analysis, which was performed on transient transfectants. In details, HEK-293 cells (ATCC, Manassas, Virginia) were transfected with the pcDNA3/hTRPM8 vector by electroporation (300 Volts, 950 µF) then selected with medium containing 0,8 mg/ml G418 for 10–15 days. Then the stable transfected pool underwent two rounds of limiting dilutions, in eight 96 well plates at a cell density of 1 cell/well, in order to obtain pure clones. The best responder clone was selected based on its response to 1 mM menthol in calcium mobilization experiments. HEK-293/hTRPM8 cells were maintained in EMEM (Minimum Essential Medium Eagle with Earl’s salts Balanced Salt Solution, LONZA) supplemented with 2 mM Ultraglutamine1 (Lonza), 1% Penicillin/Streptomycin (LONZA), 10% of Fetal Bovine Serum (Euroclone) and 0,4 mg/mL G418 (InvivoGen).
For calcium mobilization assays, cells were seeded at 10,000 cells/well in 384-well plates coated with poly-D-lysine (MATRIX black/clear bottom #4332-CPL, Thermo Scientific, Waltham, MA, USA) in complete medium.Twenty-four hours after seeding, the plates were washed with Tyrode’s buffer with a Bio-Tek-ELx405 Microplate Washer (Merck Millipore; Billerica, MA, USA), and then 10 µl/well of a solution containing the fluorescent Ca^2+ indicator Fluo-4 NW dye was added. Cells were incubated for 1 h at room temperature before test compounds were added at 3X the concentration with respect to the final wanted concentration to be tested with a FLIPR TETRA system (Molecular Devices, Sunnyvale, CA, USA). Calcium mobilization was monitored over a period of 5 min. A second injection of 10 µl/well of a reference agonist (icilin or Cooling agent 10) at 4X concentration in assay buffer was performed using the FLIPR TETRA system. Of note, for selectivity assays, the following agonists were used: 10 μM AITC (allyl isothiocyanate) for TRPA1; 100 nM Capsaicin for TRPV1; and 20 nM GSK1016790A for TRPV4.
After addition of the agonist, the fluorescence signal was recorded over the next 3 min. The bioactivity exerted by the compounds was expressed as a percentage of inhibition. The percentage scale is defined as follows: 100% inhibition was considered as the relative fluorescence units (RFUs) of the value of the MIN controls in the second injection (antagonist Capsazepine at IC100 = 50 µM) and 0% inhibition was considered as the RFU values of the value of the MAX controls in the second injection (Cooling agent 10 at EC80 = 30 µM). Data from four replicates were analyzed using GraphPad PRISM® software (version 5, GraphPad Software Inc.) to calculate the mean and standard error of the mean, to create sigmoidal concentration-response curves and to calculate IC50 values.

TRPM8 Y745A = biological target: T2, TRPM8 Y745A (Homo sapiens, UniProt Q7Z2W7, Y745A); assay: Calcium mobilization on transiently transfected TRPM8 Y745A mutant; conditions: agonist calcium response
T2 construct: expressed in transfected cells; host or cells: HEK-293, transient (Lipofectamine 2000)
T2 sequence (Q7Z2W7 whole entry Y745A): as the sequence (Q7Z2W7 whole entry) above, with Y745A counted along it
Description: (§1) Single point mutations were introduced in the hTRPM8-coding sequence, and the mutated TRPM8 was cloned as N-terminal c-myc tagged version into the pcDNA3 expression vector. This was done in that way that the single variations could be easily swapped from the myc-tagged expression construct into the non-tagged TRPM8 wild type expression construct.
(§2) The list of the variants is the following: variant 1, t2233g, a2234c (=Y745A); variant 2, a2236g, t2237c (=I746A); variant 3, a2395g, a2396c (=N799A) and variant 4, a2405c (D802A). The cloning project comprised three steps. First of all, a unique XhoI restriction site was inserted by site-directed mutagenesis (SDM) using DNA of the pcDNA3_TRPM8 construct as template. The 0.6 kb DNA fragment between the unique 5′ XhoI (introduced) and 3′ BamHI (already present) restriction sites comprised all positions of the four single point mutations and could be later used for their insertion as well as swapping between myc-tagged and non-tagged TRPM8 versions. In a second step, the c-myc tag sequence was introduced embedded within the TRPM8 coding sequence by PCR primers in two partially overlapping PCRs that were then joined by bridge PCR with the external 5′KpnI and internal 3′EcoRI primers and in the last step the point mutations 1 to 4 were inserted into pcDNA3_c-myc-TRPM8 by exchanging the wild type 5′XhoI-3′BamHI fragment (0.6 kb) with each of the corresponding variation fragment derived from synthetic DNA (provided by GeneArt, ThermoFisher Scientific).The myc-tagged constructs were transiently transfected in HEK-293 cells with Lipofectamine 2000 (Invitrogen) according to the manufacturer’s protocol. The pcDNA vectors containing the wt myc-tagged TRPM8 gene and the empty pcDNA3 (mock) were separately transfected into HEK-293 cells as controls. […] The obtained data from at least four wells (as replicates) were analyzed with GraphPad PRISM® software (version 5, GraphPad Software Inc.) to calculate the mean and standard error of the mean[58], to create sigmoidal concentration-response curves and to calculate IC50 values.

TRPM8 D802A = biological target: T3, TRPM8 D802A (Homo sapiens, UniProt Q7Z2W7, D802A); assay: Calcium mobilization on transiently transfected TRPM8 D802A mutant; conditions: agonist calcium response, D802A
T3 construct: expressed in transfected cells; host or cells: HEK-293, transient (Lipofectamine 2000)
T3 sequence (Q7Z2W7 whole entry D802A): as the sequence (Q7Z2W7 whole entry) above, with D802A counted along it
Description: as §1, §2

TRPM8 N799A = biological target: T4, TRPM8 N799A (Homo sapiens, UniProt Q7Z2W7, N799A); assay: Calcium mobilization on transiently transfected TRPM8 N799A mutant; conditions: agonist calcium response, N799A
T4 construct: expressed in transfected cells; host or cells: HEK-293, transient (Lipofectamine 2000)
T4 sequence (Q7Z2W7 whole entry N799A): as the sequence (Q7Z2W7 whole entry) above, with N799A counted along it
Description: as §1
(§3) The list of the variants is the following: variant 1, t2233g, a2234c (=Y745A); variant 2, a2236g, t2237c (=I746A); variant 3, a2395g, a2396c (=N799A) and variant 4, a2405c (D802A). The cloning project comprised three steps. First of all, a unique XhoI restriction site was inserted by site-directed mutagenesis (SDM) using DNA of the pcDNA3_TRPM8 construct as template. The 0.6 kb DNA fragment between the unique 5′ XhoI (introduced) and 3′ BamHI (already present) restriction sites comprised all positions of the four single point mutations and could be later used for their insertion as well as swapping between myc-tagged and non-tagged TRPM8 versions. In a second step, the c-myc tag sequence was introduced embedded within the TRPM8 coding sequence by PCR primers in two partially overlapping PCRs that were then joined by bridge PCR with the external 5′KpnI and internal 3′EcoRI primers and in the last step the point mutations 1 to 4 were inserted into pcDNA3_c-myc-TRPM8 by exchanging the wild type 5′XhoI-3′BamHI fragment (0.6 kb) with each of the corresponding variation fragment derived from synthetic DNA (provided by GeneArt, ThermoFisher Scientific).The myc-tagged constructs were transiently transfected in HEK-293 cells with Lipofectamine 2000 (Invitrogen) according to the manufacturer’s protocol. The pcDNA vectors containing the wt myc-tagged TRPM8 gene and the empty pcDNA3 (mock) were separately transfected into HEK-293 cells as controls. Cells were transfected and seeded on the same day at 17,500 cells/well in poly-D-lysine-coated 384-well plates (MATRIX #4332-CPL). Twenty-four hours after seeding, the activity of transfected TRPM8 receptors was tested using the calcium mobilization assay as described above. The analysis was performed on the basis of ΔF/F° (normalized MAX-MIN), where ΔF is the MAX between time points 117 and 182 minus the MIN between time points TP114 and TP116, and F° is the basal signal at time point TP0. The obtained data from at least four wells (as replicates) were analyzed with GraphPad PRISM® software (version 5, GraphPad Software Inc.) to calculate the mean and standard error of the mean[58], to create sigmoidal concentration-response curves and to calculate IC50 values.

TRPM8 I746A = biological target: T5, TRPM8 I746A (Homo sapiens, UniProt Q7Z2W7, I746A); assay: Calcium mobilization on transiently transfected TRPM8 I746A mutant; conditions: agonist calcium response, I746A
T5 construct: expressed in transfected cells; host or cells: HEK-293, transient (Lipofectamine 2000)
T5 sequence (Q7Z2W7 whole entry I746A): as the sequence (Q7Z2W7 whole entry) above, with I746A counted along it
Description: as §1, §3

wt TRPM8 = biological target: T6, wt TRPM8 (Homo sapiens, UniProt Q7Z2W7); assay: Calcium mobilization on HEK-293 cells transiently transfected with wt myc-tagged TRPM8; conditions: agonist calcium response, wt; read-out: pIC50 of the agonist (agonist dose response), wt TRPM8 (converted)
T6 construct: expressed in transfected cells; host or cells: HEK-293, transient (Lipofectamine 2000)
T6 sequence (Q7Z2W7 whole entry): as the sequence (Q7Z2W7 whole entry) above
Description: as §1
The list of the variants is the following: variant 1, t2233g, a2234c (=Y745A); variant 2, a2236g, t2237c (=I746A); variant 3, a2395g, a2396c (=N799A) and variant 4, a2405c (D802A). The cloning project comprised three steps. First of all, a unique XhoI restriction site was inserted by site-directed mutagenesis (SDM) using DNA of the pcDNA3_TRPM8 construct as template. The 0.6 kb DNA fragment between the unique 5′ XhoI (introduced) and 3′ BamHI (already present) restriction sites comprised all positions of the four single point mutations and could be later used for their insertion as well as swapping between myc-tagged and non-tagged TRPM8 versions. […] The obtained data from at least four wells (as replicates) were analyzed with GraphPad PRISM® software (version 5, GraphPad Software Inc.) to calculate the mean and standard error of the mean[58], to create sigmoidal concentration-response curves and to calculate IC50 values.

| SMILES | Max inhibition (TRPM8) [%] | Agonist activity on Y745A mutant (words) (TRPM8 Y745A) | Agonist activity on I746A mutant (words) (TRPM8 I746A) | Agonist activity on N799A mutant (words) (TRPM8 N799A) | also measured |
| --- | --- | --- | --- | --- | --- |
| O=C(NCOCc1ccc2ccccc2c1)c1cccnc1 [Compound 2] | 7.92 | – | – | – | – |
| Oc1cc2c(cc1O)CN(C(=S)NCCc1ccc(Cl)cc1)CCC2 [Capsazepine, reference compound] | – | – | – | – | IC100 (TRPM8; MIN control antagonist): 50 µM |
| CC1CCC(C(C)C)C(OCC(O)CO)C1 (stereo not drawn) [Cooling agent 10] | – | completely abolished the activation | minimal residual activation | did not affect either maximal TRPM8 activation or EC50 | Agonist activity on I746A mutant (words) (TRPM8 I746A; listed as Cooling Agent 10): strongly reduced agonist activity; EC80 (TRPM8; MAX control agonist): 30 µM |
| O=C(NCOCc1ccc2ccccc2c1)c1cncc(Br)c1 [Compound 4] | 0.00 | – | – | – | – |

Now from value to compound, other results behind:

| Max inhibition (TRPM8) [%] | Agonist activity on Y745A mutant (words) (TRPM8 Y745A) | Agonist activity on I746A mutant (words) (TRPM8 I746A) | SMILES | Agonist activity on N799A mutant (words) (TRPM8 N799A) | also measured |
| --- | --- | --- | --- | --- | --- |
| – | abrogated agonist activity | minimal residual activation | O=C1NC(c2cccc([N+](=O)[O-])c2)=CCN1c1ccccc1O [Icilin, icilin] | abrogated agonist activity | Agonist activity on Y745A mutant (words) (TRPM8 Y745A; listed as icilin): completely abolished the activation; Agonist activity on D802A mutant (words) (TRPM8 D802A): abrogated agonist activity; Agonist activity on D802A mutant (words) (TRPM8 D802A; listed as icilin): completely abolished TRPM8 activation; Agonist activity on N799A mutant (words) (TRPM8 N799A; listed as icilin): completely abolished TRPM8 activation; EC50 (TRPM8 I746A; read-out: pIC50 of the agonist (agonist dose response), I746A (converted)): 0.126 µM; EC50 (wt TRPM8): 0.251 µM |
| 0.00 | – | – | O=C(COc1ccc2ccccc2c1)NCc1cccnc1 [Compound 3] | – | – |
